Data: patent US20260132164A1, “PNU ANTHRACYCLINE DERIVATIVES AND METHODS OF USE THEREOF” (Merck Sharp & Dohme LLC, priority 2022, published 2026)
pEC50: −log10 of the molar value.

system: BxPC3; assay: CellTiter-Glo 2.0 Cytotoxicity Assay; type: cell-based; settings: Homo sapiens, BXPC-3, CellTiter-Glo 2.0 luminescence; compound added day 1, read on day 4 or 5; 3000 cells/well

| Compound | pEC50 |
| --- | --- |
| COc1cccc2c1C(=O)c1c(O)c3c(c(O)c1C2=O)C[C@@](O)(C(=O)N1CC2(CNC2)C1)C[C@@H]3O[C@H]1C[C@H]2[C@H](O[C@@H]3[C@@H](OC)OCCN32)[C@H](C)O1 [Compound 30] | 7.85 |
| COc1cccc2c1C(=O)c1c(O)c3c(c(O)c1C2=O)C[C@@](O)(C(=O)NC[C@H]1C[C@@H](N)C1)C[C@@H]3O[C@H]1C[C@H]2[C@H](O[C@@H]3[C@@H](OC)OCCN32)[C@H](C)O1 [Compound 31] | 8.59 |
| COc1cccc2c1C(=O)c1c(O)c3c(c(O)c1C2=O)C[C@@](O)(C(=O)NCc1ccc(N)cn1)C[C@@H]3O[C@H]1C[C@H]2[C@H](O[C@@H]3[C@@H](OC)OCCN32)[C@H](C)O1 [Compound 32] | 10.15 |
| COc1cccc2c1C(=O)c1c(O)c3c(c(O)c1C2=O)C[C@@](O)(C(=O)N[C@@H]1CC[C@H](N)C1)C[C@@H]3O[C@H]1C[C@H]2[C@H](O[C@@H]3[C@@H](OC)OCCN32)[C@H](C)O1 [Compound 33] | 8.04 |
| COc1cccc2c1C(=O)c1c(O)c3c(c(O)c1C2=O)C[C@@](O)(C(=O)N[C@H]1CC[C@@H](N)C1)C[C@@H]3O[C@H]1C[C@H]2[C@H](O[C@@H]3[C@@H](OC)OCCN32)[C@H](C)O1 [Compound 34] | 7.72 |
| COc1cccc2c1C(=O)c1c(O)c3c(c(O)c1C2=O)C[C@@](O)(C(=O)N[C@H]1[C@@H]2CNC[C@@H]21)C[C@@H]3O[C@H]1C[C@H]2[C@H](O[C@@H]3[C@@H](OC)OCCN32)[C@H](C)O1 [Compound 35] | 9.01 |
| COc1cccc2c1C(=O)c1c(O)c3c(c(O)c1C2=O)C[C@@](O)(C(=O)NCC1(F)CNC1)C[C@@H]3O[C@H]1C[C@H]2[C@H](O[C@@H]3[C@@H](OC)OCCN32)[C@H](C)O1 [Compound 36] | 9.38 |
| COc1cccc2c1C(=O)c1c(O)c3c(c(O)c1C2=O)C[C@@](O)(C(=O)NC[C@H]1CCNC1)C[C@@H]3O[C@H]1C[C@H]2[C@H](O[C@@H]3[C@@H](OC)OCCN32)[C@H](C)O1 [Compound 37] | 8.10 |
| CNCCCNC(=O)[C@]1(O)Cc2c(O)c3c(c(O)c2[C@@H](O[C@H]2C[C@H]4[C@H](O[C@@H]5[C@@H](OC)OCCN54)[C@H](C)O2)C1)C(=O)c1c(OC)cccc1C3=O [Compound 38] | 8.04 |
| COc1cccc2c1C(=O)c1c(O)c3c(c(O)c1C2=O)C[C@@](O)(C(=O)NCCCN1CCNCC1)C[C@@H]3O[C@H]1C[C@H]2[C@H](O[C@@H]3[C@@H](OC)OCCN32)[C@H](C)O1 [Compound 39] | 8.42 |
| COc1cccc2c1C(=O)c1c(O)c3c(c(O)c1C2=O)C[C@@](O)(C(=O)NCC[C@@H]1CCCN1)C[C@@H]3O[C@H]1C[C@H]2[C@H](O[C@@H]3[C@@H](OC)OCCN32)[C@H](C)O1 [Compound 40] | 8.37 |
| COc1cccc2c1C(=O)c1c(O)c3c(c(O)c1C2=O)C[C@@](O)(C(=O)NCc1ccc(CN)cc1)C[C@@H]3O[C@H]1C[C@H]2[C@H](O[C@@H]3[C@@H](OC)OCCN32)[C@H](C)O1 [Compound 41] | 9.38 |
| COc1cccc2c1C(=O)c1c(O)c3c(c(O)c1C2=O)C[C@@](O)(C(=O)N[C@H]1C[C@H](N)C1)C[C@@H]3O[C@H]1C[C@H]2[C@H](O[C@@H]3[C@@H](OC)OCCN32)[C@H](C)O1 [Compound 42] | 7.92 |
| COc1cccc2c1C(=O)c1c(O)c3c(c(O)c1C2=O)C[C@@](O)(C(=O)NC[C@H]1C[C@H](N)C1)C[C@@H]3O[C@H]1C[C@H]2[C@H](O[C@@H]3[C@@H](OC)OCCN32)[C@H](C)O1 [Compound 43] | 8.66 |
| COc1cccc2c1C(=O)c1c(O)c3c(c(O)c1C2=O)C[C@@](O)(C(=O)NC12CC(CN)(C1)C2)C[C@@H]3O[C@H]1C[C@H]2[C@H](O[C@@H]3[C@@H](OC)OCCN32)[C@H](C)O1 [Compound 44] | 8.32 |
| COc1cccc2c1C(=O)c1c(O)c3c(c(O)c1C2=O)C[C@@](O)(C(=O)NCC[C@H]1CCCN1)C[C@@H]3O[C@H]1C[C@H]2[C@H](O[C@@H]3[C@@H](OC)OCCN32)[C@H](C)O1 [Compound 45] | 9.22 |
| COc1cccc2c1C(=O)c1c(O)c3c(c(O)c1C2=O)C[C@@](O)(C(=O)NC1CC2(CNC2)C1)C[C@@H]3O[C@H]1C[C@H]2[C@H](O[C@@H]3[C@@H](OC)OCCN32)[C@H](C)O1 [Compound 46] | 7.74 |
| COc1cccc2c1C(=O)c1c(O)c3c(c(O)c1C2=O)C[C@@](O)(C(=O)NCC1CNC1)C[C@@H]3O[C@H]1C[C@H]2[C@H](O[C@@H]3[C@@H](OC)OCCN32)[C@H](C)O1 [Compound 47] | 8.03 |
| COc1cccc2c1C(=O)c1c(O)c3c(c(O)c1C2=O)C[C@@](O)(C(=O)NCCN(C)C(=O)C1(N)CCCC1)C[C@@H]3O[C@H]1C[C@H]2[C@H](O[C@@H]3[C@@H](OC)OCCN32)[C@H](C)O1 [Compound 48] | 9.51 |
| COc1cccc2c1C(=O)c1c(O)c3c(c(O)c1C2=O)C[C@@](O)(C(=O)NCCC1(N)COC1)C[C@@H]3O[C@H]1C[C@H]2[C@H](O[C@@H]3[C@@H](OC)OCCN32)[C@H](C)O1 [Compound 51] | 9.74 |

| Compound | pEC50 |
| --- | --- |
| COc1cccc2c1C(=O)c1c(O)c3c(c(O)c1C2=O)C[C@@](O)(C(=O)NCCN(C)C(=O)[C@@](C)(N)C(C)C)C[C@@H]3O[C@H]1C[C@H]2[C@H](O[C@@H]3[C@@H](OC)OCCN32)[C@H](C)O1 [Compound 52] | 8.72 |
| COc1cccc2c1C(=O)c1c(O)c3c(c(O)c1C2=O)C[C@@](O)(C(=O)N[C@H]1C[C@@H](N)C1)C[C@@H]3O[C@H]1C[C@H]2[C@H](O[C@@H]3[C@@H](OC)OCCN32)[C@H](C)O1 [Compound 53] | 8.11 |
| COc1cccc2c1C(=O)c1c(O)c3c(c(O)c1C2=O)C[C@@](O)(C(=O)NCCCCN)C[C@@H]3O[C@H]1C[C@H]2[C@H](O[C@@H]3[C@@H](OC)OCCN32)[C@H](C)O1 [Compound 54] | 8.85 |
| COc1cccc2c1C(=O)c1c(O)c3c(c(O)c1C2=O)C[C@@](O)(C(=O)N[C@H]1C[C@@H](CN)C1)C[C@@H]3O[C@H]1C[C@H]2[C@H](O[C@@H]3[C@@H](OC)OCCN32)[C@H](C)O1 [Compound 55] | 7.99 |
| COc1cccc2c1C(=O)c1c(O)c3c(c(O)c1C2=O)C[C@@](O)(C(=O)NCC(C)(C)CN)C[C@@H]3O[C@H]1C[C@H]2[C@H](O[C@@H]3[C@@H](OC)OCCN32)[C@H](C)O1 [Compound 56] | 8.85 |
| COc1cccc2c1C(=O)c1c(O)c3c(c(O)c1C2=O)C[C@@](O)(C(=O)NC12CNCC1C2)C[C@@H]3O[C@H]1C[C@H]2[C@H](O[C@@H]3[C@@H](OC)OCCN32)[C@H](C)O1 (stereo partly shown) [Compound 57] | 8.80 |
| COc1cccc2c1C(=O)c1c(O)c3c(c(O)c1C2=O)C[C@@](O)(C(=O)NC[C@@H]1CCNC1)C[C@@H]3O[C@H]1C[C@H]2[C@H](O[C@@H]3[C@@H](OC)OCCN32)[C@H](C)O1 [Compound 58] | 8.41 |
| COc1cccc2c1C(=O)c1c(O)c3c(c(O)c1C2=O)C[C@@](O)(C(=O)N[C@H]1CC[C@H](N)CC1)C[C@@H]3O[C@H]1C[C@H]2[C@H](O[C@@H]3[C@@H](OC)OCCN32)[C@H](C)O1 [Compound 59] | 8.20 |
| COc1cccc2c1C(=O)c1c(O)c3c(c(O)c1C2=O)C[C@@](O)(C(=O)NC12CC(NC(=O)CO)(C1)C2)C[C@@H]3O[C@H]1C[C@H]2[C@H](O[C@@H]3[C@@H](OC)OCCN32)[C@H](C)O1 [Compound 60] | 9.26 |
| COc1cccc2c1C(=O)c1c(O)c3c(c(O)c1C2=O)C[C@@](O)(C(=O)NCC(C)(C)N)C[C@@H]3O[C@H]1C[C@H]2[C@H](O[C@@H]3[C@@H](OC)OCCN32)[C@H](C)O1 [Compound 61, (2S,4S)—N-(2-amino-2-methylpropyl)-2,5,12-trihydroxy-7-methoxy-4-(((1S,3R,4aS,9S,9aR,10aS)-9-methoxy-1-methyloctahydro-1H-pyrano[4′,3′:4,5]oxazolo[2,3-c][1,4]oxazin-3-yl)oxy)-6,11-dioxo-1,2,3,4,6,11-hexahydrotetracene-2-carboxamide] | 8.06 |
| COc1cccc2c1C(=O)c1c(O)c3c(c(O)c1C2=O)C[C@@](O)(C(=O)NCCN1C(=O)CNC1=O)C[C@@H]3O[C@H]1C[C@H]2[C@H](O[C@@H]3[C@@H](OC)OCCN32)[C@H](C)O1 [Compound 62] | 9.72 |
| COc1cccc2c1C(=O)c1c(O)c3c(c(O)c1C2=O)C[C@@](O)(C(=O)NCCN1CCNC1=O)C[C@@H]3O[C@H]1C[C@H]2[C@H](O[C@@H]3[C@@H](OC)OCCN32)[C@H](C)O1 [Compound 63] | 9.85 |
| COc1cccc2c1C(=O)c1c(O)c3c(c(O)c1C2=O)C[C@@](O)(C(=O)NCC1(N)CC1)C[C@@H]3O[C@H]1C[C@H]2[C@H](O[C@@H]3[C@@H](OC)OCCN32)[C@H](C)O1 [Compound 64] | 9.31 |
| COc1cccc2c1C(=O)c1c(O)c3c(c(O)c1C2=O)C[C@@](O)(C(=O)NCC(N)C(F)(F)F)C[C@@H]3O[C@H]1C[C@H]2[C@H](O[C@@H]3[C@@H](OC)OCCN32)[C@H](C)O1 (stereo partly shown) [Compound 65] | 9.80 |
| COc1cccc2c1C(=O)c1c(O)c3c(c(O)c1C2=O)C[C@@](O)(C(=O)N1CCNCC1)C[C@@H]3O[C@H]1C[C@H]2[C@H](O[C@@H]3[C@@H](OC)OCCN32)[C@H](C)O1 [Compound 68] | 8.09 |
| COc1cccc2c1C(=O)c1c(O)c3c(c(O)c1C2=O)C[C@@](O)(C(=O)NCC(N)C(F)F)C[C@@H]3O[C@H]1C[C@H]2[C@H](O[C@@H]3[C@@H](OC)OCCN32)[C@H](C)O1 (stereo partly shown) [Compound 69] | 9.80 |
| COc1cccc2c1C(=O)c1c(O)c3c(c(O)c1C2=O)C[C@@](O)(C(=O)NCc1cnc(N)o1)C[C@@H]3O[C@H]1C[C@H]2[C@H](O[C@@H]3[C@@H](OC)OCCN32)[C@H](C)O1 [Compound 70] | 10.02 |
| COc1cccc2c1C(=O)c1c(O)c3c(c(O)c1C2=O)C[C@@](O)(C(=O)N[C@@H]1CCC[C@H]1N)C[C@@H]3O[C@H]1C[C@H]2[C@H](O[C@@H]3[C@@H](OC)OCCN32)[C@H](C)O1 [Compound 71] | 8.08 |
| COc1cccc2c1C(=O)c1c(O)c3c(c(O)c1C2=O)C[C@@](O)(C(=O)NCc1ccc(N)nc1)C[C@@H]3O[C@H]1C[C@H]2[C@H](O[C@@H]3[C@@H](OC)OCCN32)[C@H](C)O1 [Compound 72] | 10.10 |
| COc1cccc2c1C(=O)c1c(O)c3c(c(O)c1C2=O)C[C@@](O)(C(=O)NCCC(N)C(F)(F)F)C[C@@H]3O[C@H]1C[C@H]2[C@H](O[C@@H]3[C@@H](OC)OCCN32)[C@H](C)O1 (stereo partly shown) [Compound 73] | 9.70 |
